This passage reports Ki, IC50 and remaining activity results from patent publication US9096596B2 (Janssen Pharmaceutica NV, priority 2013, dated 2015).

Like-named read-outs stand apart in the source and are kept apart here.

The target of assay [1] is T1, P2X7 (Homo sapiens (Human), UniProt Q99572). The experiment in a line: Radioligand binding, human P2X7-1321N1 cell membranes, tracer tritiated A-804598. Here is the method: On the day of the experiment, cell membrane preparations were made according to standard published methods. […] The compound can be prepared as described in the literature. […] The assay was terminated by filtration (GF/B filters pre-soaked with 0.3% PEI) and washed with washing buffer (Tris-HCl 50 mM). The IC50 generated in the binding assay was corrected for tracer concentration and affinity of the tracer to derive at the affinity (Ki) of the test compounds.
T1 sequence (Q99572 whole entry): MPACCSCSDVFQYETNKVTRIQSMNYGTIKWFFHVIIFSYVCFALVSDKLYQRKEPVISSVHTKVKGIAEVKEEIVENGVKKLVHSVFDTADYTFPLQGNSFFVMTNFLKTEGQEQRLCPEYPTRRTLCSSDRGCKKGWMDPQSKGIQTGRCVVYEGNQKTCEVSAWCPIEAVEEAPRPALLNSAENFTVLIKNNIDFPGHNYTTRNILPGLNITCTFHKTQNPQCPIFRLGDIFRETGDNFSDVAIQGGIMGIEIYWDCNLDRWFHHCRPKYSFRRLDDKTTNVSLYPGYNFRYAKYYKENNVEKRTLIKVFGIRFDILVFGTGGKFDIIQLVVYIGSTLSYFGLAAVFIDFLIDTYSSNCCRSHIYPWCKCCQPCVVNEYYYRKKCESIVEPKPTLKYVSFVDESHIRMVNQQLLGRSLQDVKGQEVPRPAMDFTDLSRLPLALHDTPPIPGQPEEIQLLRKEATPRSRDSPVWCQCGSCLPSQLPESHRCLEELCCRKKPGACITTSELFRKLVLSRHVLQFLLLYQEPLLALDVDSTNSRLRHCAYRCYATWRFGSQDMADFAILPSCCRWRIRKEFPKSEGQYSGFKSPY

The target in assay [2] is T1, P2X7. Description: Ca2+ flux (FLIPR) in 1321N1 cells expressing recombinant human P2X7 channel. Format: cell-based. The note with it: 250 μM BzATP, Calcium-4 dye. The procedure: (§1) 1321N1 cells expressing the recombinant human, rat or mouse P2X7 channel was cultured in HyQ DME/(HyClone/Dulbecco's Modified Eagle Medium) high glucose supplemented with 10% Fetal Bovine Serum (FBS) and appropriate selection marker. Cells were seeded at a density of 25000 cells/well (96-well clear bottom black walled plates) in 100 μl volume/well. On the day of the experiment, cell plates were washed with assay buffer, containing (in mM): 130 NaCl, 2 KCl, 1 CaCl2, 1 MgCl2, 10 HEPES, 5 glucose; pH 7.40 and 300 mOs. After the wash, cells were loaded with the Calcium-4 dye (Molecular Device) and incubated in the dark for 60 minutes. Test compounds were prepared at 250× the test concentration in neat DMSO. Intermediate 96-well compound plates were prepared by transferring 1.2 μL of the compound into 300 μL of assay buffer. A further 3× dilution occurred when transferring 50 μL/well of the compound plate to 100 μL/well in the cell plate. Cells were incubated with test compounds and dye for 30 minutes. […] The fluorescence change was measured 180 seconds after adding the agonist.

The target in assay [3] is rat P2X7 (Rattus norvegicus (Rat), UniProt Q64663). The experiment in a line: Ca2+ flux (FLIPR) in 1321N1 cells expressing recombinant rat P2X7 channel. Format: cell-based. The note with it: 250 μM BzATP, Calcium-4 dye. Here is the method: as §1
Chain of rat P2X7 (Q64663 whole entry): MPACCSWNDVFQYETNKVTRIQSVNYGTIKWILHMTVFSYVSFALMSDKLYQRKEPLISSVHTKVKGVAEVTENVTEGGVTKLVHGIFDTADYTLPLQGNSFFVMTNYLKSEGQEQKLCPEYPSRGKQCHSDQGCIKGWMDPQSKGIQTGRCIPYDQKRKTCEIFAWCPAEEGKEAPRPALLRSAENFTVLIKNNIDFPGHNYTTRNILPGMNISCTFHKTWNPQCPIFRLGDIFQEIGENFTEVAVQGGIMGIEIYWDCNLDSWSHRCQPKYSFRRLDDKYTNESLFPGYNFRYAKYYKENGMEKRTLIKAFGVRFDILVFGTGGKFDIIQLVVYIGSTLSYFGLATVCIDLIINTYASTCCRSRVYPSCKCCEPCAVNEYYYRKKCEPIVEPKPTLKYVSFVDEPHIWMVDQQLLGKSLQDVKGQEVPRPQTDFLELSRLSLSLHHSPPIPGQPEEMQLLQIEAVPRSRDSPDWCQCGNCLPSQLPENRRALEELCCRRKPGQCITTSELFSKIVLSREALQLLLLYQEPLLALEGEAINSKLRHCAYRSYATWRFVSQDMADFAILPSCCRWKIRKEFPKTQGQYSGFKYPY
Assay [4] concerns the target T1, P2X7. The experiment in a line: P2X7 antagonism in human PBMCs (IL-1β release, ELISA). Format: cell-based. The note with it: test compound 10 μM, IL-1β release in human PBMCs, LPS 30 ng/ml + Bz-ATP 0.5 mM, read-out: PBMC 10 μM (% control). The procedure:
Human blood was collected using a blood donor program. […] Cells were incubated for an additional 1.5 hours. […] In Table 2, when the data cell has been left blank, it is intended to mean that the compound was not tested in that assay.

The mark [5] stands for this setting: human P2X7-1321N1 membranes, 1 hour at 4° C., IC50 corrected for tracer concentration and affinity.

Compound `Cc1nc2c(c(-c3ccn[nH]3)n1)C[C@@H](C)N(C(=O)c1cccc(C(F)(F)F)c1C)C2` (single isomer, unassigned) [Example 78, (R*)-(2,6-dimethyl-4-(1H-pyrazol-5-yl)-5,6-dihydropyrido[3,4-d]pyrimidin-7(8H)-yl)(2-methyl-3-(trifluoromethyl)phenyl)methanone] registered a Ki in assay [1] of 7.9 nM. The IC50 in assay [2] amounted to 13.6 nM.
The corresponding values for `Cc1nc2c(c(-c3ccn[nH]3)n1)C[C@H](C)N(C(=O)c1ccc(Cl)cc1F)C2` (single isomer, unassigned) [Example 89, (S*)-(4-chloro-2-fluorophenyl)(2,6-dimethyl-4-(1H-pyrazol-5-yl)-5,6-dihydropyrido[3,4-d]pyrimidin-7(8H)-yl)methanone] are 11.5 nM and 17.2 nM.
Compound `Cc1nc2c(c(-c3ccn[nH]3)n1)C[C@H](C)N(C(=O)c1ccc(F)cc1F)C2` (single isomer, unassigned) [Example 95, (S*)-(2,4-difluorophenyl)(2,6-dimethyl-4-(1H-pyrazol-5-yl)-5,6-dihydropyrido[3,4-d]pyrimidin-7(8H)-yl)methanone] returned a Ki in assay [1] of 31.6 nM. Moreover, the IC50 in assay [2] came out at 64.7 nM; in assay [3], 101 nM.
With `O=C(c1cccc(C(F)(F)F)c1Cl)N1CCc2c(ncnc2-c2ccccc2)C1` [Example 1, 7-{[2-Chloro-3-(trifluoromethyl)phenyl]carbonyl}-4-phenyl-5,6,7,8-tetrahydropyrido[3,4-d]pyrimidine], in assay [1] (setting [5]), the Ki came to 224 nM. In addition, the IC50 turned out to be 29.9 nM in assay [2] and 1270 nM in assay [3].
Take `Cc1nc2c(c(-c3ccn[nH]3)n1)CC(C)N(C(=O)c1ccc(C#N)cc1C)C2` (centres unmarked) [Example 3, 4-(2,6-dimethyl-4-(1H-pyrazol-5-yl)-5,6,7,8-tetrahydropyrido[3,4-d]pyrimidine-7-carbonyl)-3-methylbenzonitrile]: the remaining activity at 10 µM in assay [4] is 2.5%. The figures for the IC50 in assay [2] and in assay [3] were 798 nM and 4250 nM, respectively.
Take `O=C(c1cc(F)c(F)cc1Cl)N1CCc2c(ncnc2-c2cnccn2)C1` [Example 16, 7-[(2-Chloro-4,5-difluorophenyl)carbonyl]-4-pyrazin-2-yl-5,6,7,8-tetrahydropyrido[3,4-d]pyrimidine]: in assay [4], the remaining activity at 10 µM came out at 20.4%. Besides, the IC50 in assay [2] was 13200 nM; in assay [3], greater than 10000 nM.
Consider `Cc1nc2c(c(-c3ccccc3)n1)CCN(C(=O)c1cccc(Cl)c1Cl)C2` [Example 27, 7-[(2,3-Dichlorophenyl)carbonyl]-2-methyl-4-phenyl-5,6,7,8-tetrahydropyrido[3,4-d]pyrimidine], for which, in assay [1] (setting [5]), affinity was put at a Ki of 427 nM. Further, the IC50 in assay [2] was 117 nM; in assay [3], 4550 nM.
As for `O=C(c1cccc(C(F)(F)F)c1Cl)N1CCc2c(ncnc2-c2nccs2)C1` [Example 37, 7-{[2-Chloro-3-(trifluoromethyl)phenyl]carbonyl}-4-(1,3-thiazol-2-yl)-5,6,7,8-tetrahydropyrido[3,4-d]pyrimidine], the Ki in assay [1] (setting [5]) is 50.1 nM. The IC50 in assay [2] amounted to 12.1 nM.
On the same counts, the results for `O=C(c1cccc(Cl)c1Cl)N1CCc2c(ncnc2-c2nccs2)C1` [Example 38, 7-[(2,3-Dichlorophenyl)carbonyl]-4-(1,3-thiazol-2-yl)-5,6,7,8-tetrahydropyrido[3,4-d]pyrimidine] are 77.6 nM and 63.4 nM.
In assay [1] (setting [5]), `O=C(c1cccc(C(F)(F)F)c1Cl)N1CCc2c(ncnc2-c2ccc[nH]2)C1` [Example 42, 7-{[2-Chloro-3-(trifluoromethyl)phenyl]carbonyl}-4-(1H-pyrrol-2-yl)-5,6,7,8-tetrahydropyrido[3,4-d]pyrimidine] registered a Ki of 79.4 nM. The IC50 in assay [2] turned out to be 20 nM.
`Cc1nc2c(c(-c3cscn3)n1)CCN(C(=O)c1cccc(C(F)(F)F)c1Cl)C2` [Example 44, 7-{[2-Chloro-3-(trifluoromethyl)phenyl]carbonyl}-2-methyl-4-(1,3-thiazol-4-yl)-5,6,7,8-tetrahydropyrido[3,4-d]pyrimidine] showed a Ki in assay [1] (setting [5]) of 63.1 nM. The IC50 stood at 34.8 nM in assay [2] and 156 nM in assay [3].
Regarding `Cc1nc2c(c(-c3ccn[nH]3)n1)CC(C)N(C(=O)c1cccc(C#N)c1C)C2` (centres unmarked) [Example 61, 3-(2,6-dimethyl-4-(1H-pyrazol-5-yl)-5,6,7,8-tetrahydropyrido[3,4-d]pyrimidine-7-carbonyl)-2-methylbenzonitrile], in assay [4], the remaining activity at 10 µM was -1.2%. Further, the IC50 is 448 nM in assay [2] and 3110 nM in assay [3].
On the same counts, the results for `O=C(c1cccc(C(F)(F)F)c1Cl)N1CCc2c(ncnc2-n2cncn2)C1` [Example 110, (4-(1H-1,2,4-triazol-1-yl)-5,6-dihydropyrido[3,4-d]pyrimidin-7(8H)-yl)(2-chloro-3-(trifluoromethyl)phenyl)methanone] are 20.1%, greater than 10000 nM and greater than 10000 nM.
`O=C(c1ccc(F)c(Cl)c1Cl)N1CCc2c(ncnc2-c2cccc(F)n2)C1` [Example 129, (2,3-dichloro-4-fluorophenyl)(4-(6-fluoropyridin-2-yl)-5,6-dihydropyrido[3,4-d]pyrimidin-7(8H)-yl)methanone]: the remaining activity at 10 µM in assay [4] worked out at 2.5%. The compound further registered a Ki in assay [1] (setting [5]) of 39.8 nM.
With `Cc1ccc(C(=O)N2Cc3nc(C)nc(-c4ccn[nH]4)c3CC2C)c(C)c1` (centres unmarked) [Example 131, (2,6-dimethyl-4-(1H-pyrazol-5-yl)-5,6-dihydropyrido[3,4-d]pyrimidin-7(8H)-yl)(2,4-dimethylphenyl)methanone], the remaining activity at 10 µM in assay [4] is 7.3%. Further, the IC50 in assay [2] is 11400 nM; in assay [3], greater than 10000 nM.
On the same counts, the results for `Cc1nc2c(c(-c3ccn[nH]3)n1)CC(C)N(C(=O)c1cccc(C)c1C)C2` (centres unmarked) [Example 132, (2,6-dimethyl-4-(1H-pyrazol-5-yl)-5,6-dihydropyrido[3,4-d]pyrimidin-7(8H)-yl)(2,3-dimethylphenyl)methanone] are -0.1%, 532 nM and 7160 nM.
For `Cc1nc2c(c(-c3ccn[nH]3)n1)CC(C)N(C(=O)c1ccc(F)cc1C)C2` (centres unmarked) [Example 133, (2,6-dimethyl-4-(1H-pyrazol-5-yl)-5,6-dihydropyrido[3,4-d]pyrimidin-7(8H)-yl)(4-fluoro-2-methylphenyl)methanone], in assay [4], the remaining activity at 10 µM was 0.1%. Besides, the IC50 in assay [2] was 918 nM.
With `Cc1nc2c(c(-c3ccn[nH]3)n1)CC(C)N(C(=O)c1cccc(F)c1C)C2` (centres unmarked) [Example 134, (2,6-dimethyl-4-(1H-pyrazol-5-yl)-5,6-dihydropyrido[3,4-d]pyrimidin-7(8H)-yl)(3-fluoro-2-methylphenyl)methanone], the remaining activity at 10 µM in assay [4] turned out to be 0.4%. For the same compound, the IC50 came to 331 nM in assay [2] and 1270 nM in assay [3].
The corresponding values for `Cc1nc2c(c(-c3ccn[nH]3)n1)CC(C)N(C(=O)c1cccc(C)c1F)C2` (centres unmarked) [Example 135, (2,6-dimethyl-4-(1H-pyrazol-5-yl)-5,6-dihydropyrido[3,4-d]pyrimidin-7(8H)-yl)(2-fluoro-3-methylphenyl)methanone] are -1%, 492 nM and 1870 nM.
